In patent publication US6867320B2, “Substituted phenylalkanoic acid derivatives and use thereof” (Asahi Kasei Pharma Corporation, priority 2002, dated 2005):

Experiments:
[1] = test system: LTB4 production from IgE-stimulated RBL-2H3 cells; assay: Suppressing action on LTB4 production from IgE-stimulated RBL-2H3 cells; type: cell-based; settings: Rattus norvegicus, 10 min, IgE/DNP-BSA stimulated RBL-2H3 cells, read-out: LTB4 production suppression ratio
How it was run: (§1)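 Rat RBL-2H3 mastocytoma cells, sensitized 30 min with anti-DNP-BSA IgE, then given test compound in 0.5% FBS medium and stimulated with DNP-BSA (100 ng/ml final). Supernatant PGD2 and LTB4 were measured by EIA after 10 min. Suppression ratio is calculated against unstimulated and stimulant-only controls.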

[2] = test system: IgE-stimulated footpad edema; assay: Mouse IgE-stimulated footpad edema reaction; type: in vivo; settings: C57BL/6 male mice, oral 0.1 to 500 mg/kg, compared with positive control group
Procedure: 4. Suppressing Effect on Mouse IgE-stimulated Footpad Edema Reaction
Suppression on footpad edema caused by IgE antibody as an allergic stimulant was studied by the following method. Groups of C57BL/6 male mice (9- to 11-week old) each consisting of five mice were used for the test. Anti-DNP-BSA IgE serum was subcutaneously administered in a volume of 20 μl to right hind leg footpad of each mouse one day before the test. A test compound was suspended or dissolved in purified water containing 0.5% methylcellulose and orally administered to the test animals at 0.1 to 500 mg/0.2 ml/kg. To the control group, purified water containing 0.5% methylcellulose was administered in a similar manner, which was not added with the test compound. Two hours after the administration of the test compound, 0.2 ml of a solution of DNP-BSA dissolved in physiological saline (Otsuka Pharmaceutical) at 2.5 μg/ml was intravenously administered. The thickness of right hind leg footpad was measured by using a digital thickness gauge (MITSUTOYO) 10, 15, 20, and 30 minutes after the administration of DNP-BSA. A difference of the thickness of footpad measured above and the thickness before the administration of the test compound measured beforehand was regarded as a thickness of edema.
For the thickness of the edema at 10, 15, 20 and 30 minutes after the DNP-BSA administration, a graph was prepared indicating time in abscissa and the edema thickness in ordinate, and edema thickness AUC […] was obtained by calculation according to the following equation. Edema thickness AUC (mm·minute)=1/2×10×A+5×(A+B)/2+5×(B+C)/2+10×(C+D)/2 • A: Edema thickness 10 minutes after DNP-BSA administration • B: Edema thickness 15 minutes after DNP-BSA administration • C: Edema thickness 20 minutes after DNP-BSA administration • D: Edema thickness 30 minutes after DNP-BSA administration
A suppressing ratio on edema of a test compound was obtained by calculation in accordance with the following equation. Edema suppression ratio (%)=[1−B/A]×100 • A: Edema thickness AUC of positive control • B: Edema thickness AUC of test compound administered group (2) Measurement Results

[3] = test system: zymosan-stimulated footpad edema; assay: Mouse zymosan-stimulated footpad edema reaction; type: in vivo; settings: ICR female mice, oral 0.1 to 500 mg/kg, compared with positive control group
How it was run: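 Female ICR mice (6–7 weeks, n=8) dosed orally at 0.1 to 500 mg/kg in 0.5% methylcellulose; 1 h later zymosan (1 mg/ml, 0.02 ml) injected s.c. into right hind footpad. Edema volume at 1 and 2 h gave AUC to 2 h; suppression (%) calculated against positive control AUC.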

[4] = test system: PGD2 production from IgE-stimulated RBL-2H3 cells; assay: Suppressing action on PGD2 production from IgE-stimulated RBL-2H3 cells; type: cell-based; settings: Rattus norvegicus, 10 min, IgE/DNP-BSA stimulated RBL-2H3 cells, read-out: PGD2 production suppression ratio
How it was run: as §1

[5] = test system: PGE2 production from IL-1β-stimulated MG-63 cells; assay: Suppressing action on PGE2 production from IL-1β-stimulated MG-63 cells; type: cell-based; settings: Homo sapiens, IL-1β 1 ng/ml, 18 hours, read-out: PGE2 production suppression ratio
How it was run: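 Human osteosarcoma MG-63 cells (2×10^4/well) switched to 0.5% FBS medium, treated with compound, then stimulated with IL-1β at 1 ng/ml final for 18 h. Supernatant PGE2 measured by EIA; suppression ratio calculated against stimulated and unstimulated wells.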

SMILES	inhibition at 0.4 µM [1] [%]	suppression of footpad edema caused by IgE stimulation [2]	suppression of footpad edema caused by zymosan [3]	inhibition at 0.4 µM [4] [%]	inhibition at 0.4 µM [5] [%]
O=C(O)CCc1ccc(OCC2CCCCC2)c(-c2ccc3[nH]ccc3c2)c1 [Compound 231, 3-[4-cyclohexylmethyloxy-3-(1H-indol-5-yl)phenyl]propionic acid]	≥ 50	suppressed the footpad edema	suppressed footpad edema	≥ 50	≥ 50
O=C(O)CCc1ccc(OCCCc2ccccc2)c(-c2ccc3[nH]ccc3c2)c1 [Compound 220, 3-[3-(1H-indol-5-yl)-4-(3-phenylpropyloxy)phenyl]propionic acid]	≥ 50	suppressed the footpad edema	suppressed footpad edema	≥ 50	≥ 50
CC(Oc1ccc(CCC(=O)O)cc1-c1ccc2[nH]ccc2c1)c1ccccc1 (stereo not shown) [Compound 132, 3-[3-(1H-indol-5-yl)-4-(1-phenylethyloxy)phenyl]propionic acid]	≥ 50	suppressed the footpad edema	suppressed footpad edema	≥ 50	≥ 50
O=C(O)CCc1ccc(OCC2CCCC2)c(-c2ccc3ncsc3c2)c1 [Compound 299, 3-[3-(benzothiazol-6-yl)-4-cyclopentylmethyloxyphenyl]propionic acid]	≥ 50	suppressed the footpad edema	suppressed footpad edema	≥ 50	≥ 50
O=C(O)CCc1ccc(OCc2ccc(F)cc2)c(-c2ccc3[nH]ccc3c2)c1 [Compound 146, 3-[4-(4-fluorophenylmethyloxy)-3-(1H-indol-5-yl)phenyl]propionic acid]	≥ 50	suppressed the footpad edema	suppressed footpad edema	≥ 50	≥ 50
O=C(O)CCc1ccc(OC2CCCC2)c(-c2ccc3ccccc3c2)c1 [Compound 043, 3-[4-cyclopentyloxy-3-(naphthalen-2-yl)phenyl]propionic acid]	≥ 50	suppressed the footpad edema	suppressed footpad edema	≥ 50	≥ 50
O=C(O)CCc1ccc(OCCC2CCCC2)c(-c2ccc3ccccc3c2)c1 [Compound 047, 3-[4-(2-cyclopentylethyloxy)-3-(naphthalen-2-yl)phenyl]propionic acid]	≥ 50	suppressed the footpad edema	suppressed footpad edema	≥ 50	≥ 50
O=C(O)CCc1ccc(OCC2CCCC2)c(-c2ccc3ccccc3c2)c1 [Compound 039, 3-[4-cyclopentylmethyloxy-3-(naphthalen-2-yl)phenyl]propionic acid]	≥ 50	suppressed the footpad edema	suppressed footpad edema	≥ 50	≥ 50
O=C(O)CCc1ccc(OCC2CCCCC2)c(-c2ccc3cc(O)ccc3c2)c1 [Compound 002, 3-[4-cyclohexylmethyloxy-3-(6-hydroxynaphthalen-2-yl)phenyl]propionic acid]	≥ 50	suppressed the footpad edema	suppressed footpad edema	≥ 50	≥ 50
O=C(O)CCc1ccc(OCCc2ccccc2F)c(-c2ccc3ccccc3c2)c1 [Compound 053, 3-{4-[2-(2-fluorophenyl)ethyloxy]-3-(naphthalen-2-yl)phenyl}propionic acid]	≥ 50	suppressed the footpad edema	suppressed footpad edema	≥ 50	≥ 50
Cn1ccc2cc(-c3cc(CCC(=O)O)ccc3OCC3CCCCC3)ccc21 [Compound 233, 3-[4-cyclohexylmethyloxy-3-(1-methyl-1H-indol-5-yl)phenyl]propionic acid]	≥ 50	suppressed the footpad edema	suppressed footpad edema	≥ 50	≥ 50
CCCCOc1ccc(COc2ccc(CCC(=O)O)cc2-c2ccc3[nH]ccc3c2)cc1 [Compound 186, 3-{4-[4-(butyloxy)phenylmethyloxy]-3-(1H-indol-5-yl)phenyl}propionic acid]	≥ 50	suppressed the footpad edema	suppressed footpad edema	≥ 50	≥ 50
O=C(O)CCc1cc(F)c(OCC2CCCC2)c(-c2ccc3[nH]ccc3c2)c1 [Compound 261, 3-[4-cyclopentylmethyloxy-3-fluoro-5-(1H-indol-5-yl)phenyl]propionic acid]	≥ 50	suppressed the footpad edema	suppressed footpad edema	≥ 50	≥ 50
O=C(O)CCc1ccc(OCC2CC3CCC2C3)c(-c2ccc3[nH]ccc3c2)c1 (stereo not shown) [Compound 177, 3-[4-(bicyclo[2,2,1]hept-2-ylmethyloxy)-3-(1H-indol-5-yl)phenyl]propionic acid]	≥ 50	suppressed the footpad edema	suppressed footpad edema	≥ 50	≥ 50
O=C(O)CCc1ccc(OCC2CCCC2)c(-c2ccc3[nH]ccc3c2)c1 [Compound 100, 3-[4-cyclopentylmethyloxy-3-(1H-indol-5-yl)phenyl]propionic acid]	≥ 50	suppressed the footpad edema	suppressed footpad edema	≥ 50	≥ 50
CC(C)C(C)COc1ccc(CCC(=O)O)cc1-c1ccc2[nH]ccc2c1 (stereo not shown) [Compound 181, 3-[4-(2,3-dimethylbutyloxy)-3-(1H-indol-5-yl)phenyl]propionic acid]	≥ 50	suppressed the footpad edema	suppressed footpad edema	≥ 50	≥ 50
CN(CCOc1ccc(CCC(=O)O)cc1-c1ccc2[nH]ccc2c1)c1ccccc1 [Compound 229, 3-{3-(1H-indol-5-yl)-4-[2-(N-phenyl-N-methylamino)-ethyloxy]phenyl}propionic acid]	≥ 50	suppressed the footpad edema	suppressed footpad edema	≥ 50	≥ 50
